Entries after “also recorded” stand apart in the source; their conditions may differ.
Key:
HSV-TK-transduced cells = assay: Cell proliferation assay, low copy number, HSV-TK; assay type: cell-based
Description: (§1) In another experiment, the cells were transduced with a low copy number of the plasmids and, thus, differences between the different nucleoside analogs could be observed. […] Ganciclovir at high concentrations is also toxic to non-transduced cells.
(§2) Finally, the cell proliferation assay was also performed with the SR39 or HSV-TK-transduced cells treated with penciclovir. […] Thus, penciclovir may be used as the prodrug with the suicide gene construct, such as HSV-TK, SR39, or UL97.

SR39-transduced cells = assay: Cell proliferation assay, low copy number, SR39; assay type: cell-based
Description: as §1, §2

non-transduced cells = assay: Cell proliferation assay, non-transduced cells; assay type: cell-based
Description: as §1, §2

[1] = test system: regular PSCs (not transduced with the TK construct); assay: Calcein cell viability assay, ganciclovir on control PSC; assay type: cell-based, human; conditions: concentrations of 40 μM
Description: (§3) Cell Proliferation Measurement by Calcein Assay:
(§4) Cells were plated onto a 96 wells pre-coated with polyornothine+ECM (1/50). Respectively 1000 cells for pluripotent stem cells, 5000 cells for early NPC and 30000 cells for late NPC. Ganciclovir (Cemevene diluted in PBS, Roche) treatment was added the day after cell plating for PSC, 3 days later for early NPC and one week later for late NPC. Calcein (2 μM) was added for different time course of ganciclovir treatment (24H to 96H). Cell survival was measured by calcein integration after 24h of incubation in a 37° C. incubator.

control neurons = assay: Calcein cell viability assay, ganciclovir on control neurons; assay type: cell-based, human; conditions: concentrations up to 40 μM
Description: as §3, §4

[2] = test system: HEK cells transfected with UL97 under the UBI promoter; assay: Cell proliferation/viability assay, high copy number plasmid, UL97; assay type: cell-based
Description: (§5) In further experiments, cell proliferation assay was performed using different suicide gene constructs in combination with various drugs, such as acyclovir, ganciclovir, or pencilovir. In the first assay, a kinase from human cytomegalovirus (CMV), UL97, was used as a novel suicide gene. The HEK cells were transfected with a high copy number of the respective plasmids.

[3] = test system: TK-PSC transplanted into the striatum; assay: Transplantation of TK-PSC into striatum and ganciclovir treatment (teratoma formation); assay type: in vivo, NOD/SCID mice
Description: (§6) FIGS. 3A-3C: Schedule of cell transplantation and ganciclovir treatment. Different transplantation and ganciclovir treatment protocols were used. (A) Schematic representation of the differentiation protocol towards DA neurons. Pluripotent stem cells were cultured as neurospheres for 1 week for midbrain orientation phase, followed by a 2 or 3 week-maturation phase. (B) Transplantation of undifferentiated pluripotent stem cells with early or late ganciclovir treatment. Early treatment: undifferentiated pluripotent stem cells were transplanted and ganciclovir (or PBS control) was applied by daily intra-peritoneal injection from day 4 to day 19 post-transplantation. Late treatment: undifferentiated pluripotent stem cells were transplanted and ganciclovir (or PBS control) was applied by daily intra-peritoneal injection from day 30 to day 45 post-transplantation. (C) Transplantation of 2 or 3 week NPC: NPC containing—neurospheres were dissociated and transplanted into mice striatum. Ganciclovir (or PBS control) treatment was given from day 4 to day 19 post-transplantation. For all protocols, animals were sacrificed 1 month after termination of ganciclovir treatment.
(§7) Stereotaxic engraftment and ganciclovir treatment:
(§8) Undifferentiated pluripotent stem cells (20000 cells/μL) and dissociated neurospheres (100.000 cells/μL) were injected in the striatum of anesthetized mice using a 27-G Hamilton syringe. Injection coordinates for lateral striatum were: bregma=0.74 mm, mediolateral=2.25 mm, dorsoventral=3.5 mm; for medial striatum: bregma=0.74 mm, mediolateral=1.4 mm, dorsoventral=2.8 mm. Mice were euthanized one month later after ganciclovir termination.
(§9) Morphological and Phenotypic Analysis of Injected Surviving Cells:
(§10) Anesthetized mice were fixed by intracardiac perfusion of 4% paraformaldehyde in phosphate-buffered saline. Immunohistochemical detection was performed on 10-μm thick free-floating cryostat sections using Alexa 488-, or 555-labeled secondary antibodies or the biotin-avidin-peroxidase complex method (Vector). The following primary antibodies were used: Nestin (rabbit polyclonal anti-human, from Chemicon, 1/400), β3-tubulin (mouse monoclonal from Sigma or rabbit polyclonal from Covance, 1/2000), Neuronal Nuclei-specific protein (NeuN, mouse monoclonal from Chemicon, 1/1000), Glial Fibrillary Acidic Protein (GFAP, rabbit polyclonal from Dako, 1/2000), Proliferating Cell Nuclear Antigen (PCNA, mouse monoclonal from Dako, 1/100), Tyrosin Hydroxylase (TH, rabbit polyclonal from millipore, 1/500), iba 1 (polyclonal rabbit from Wako, 1/500), HSV-TK (mouse monoclonal, Gentaur, 1/100), ki67 (monoclonal rabbit, Abcam, 1/100 or mouse, Chemicon, 1/100).

[4] = test system: TK-PSC (HS415 pluripotent stem cells expressing HSV-TK under the Ki67 promoter); assay: Calcein cell viability assay, ganciclovir on TK-PSC; assay type: cell-based, human
Description: as §3, §4

TK-NPCs = assay: Calcein cell viability assay, ganciclovir time course on TK-NPC; assay type: cell-based, human; conditions: 40 μM
Description: as §3, §4

[5] = test system: HEK cells transfected with HSV-TK plasmid; assay: Cell proliferation/viability assay, high copy number plasmid, HSV-TK; assay type: cell-based
Description: as §5

TK-NPC transplants = assay: Transplantation of 2-3 week NPC neurospheres into striatum and ganciclovir treatment; assay type: in vivo, mice
Description: as §6, with “Ganciclovir (or PBS control) treatment was given from day 4 to day 19 post-transplantation.” left out
as §7, §8, §9, §10
BrdU (100 mg/kg, Millipore) was injected intraperitoneally twice daily for 3 consecutive days. Mice were sacrificed 5 days later and perfused, through the heart, with PBS and 4% paraformaldehyde in PBS. […]

With `Nc1nc2c(ncn2COCCO)c(=O)[nH]1` [acyclovir, Acyclovir] the “concentration needed to kill HSV-TK-transduced cells” value (HSV-TK-transduced cells) was “very high concentrations” and the “concentration needed to kill SR39-transduced cells” value (SR39-transduced cells) was “very high concentrations”.

`Nc1nc2c(ncn2CCC(CO)CO)c(=O)[nH]1` [penciclovir, Penciclovir] was tested, and the “toxicity in untransduced cells” value (non-transduced cells) was “did not show any toxicity”, the “concentration needed to kill HSV-TK-transduced cells” value (HSV-TK-transduced cells) was “relatively low concentrations” and the “concentration needed to kill SR39-transduced cells” value (SR39-transduced cells) was “relatively low concentrations”.

With `Nc1nc(O)c2ncn(COC(CO)CO)c2n1` [ganciclovir, Ganciclovir] the “effect on regular (control) PSCs” value [1] was “resistant; also recorded: no ganciclovir toxicity is observed”, the “effect on control neurons” value (control neurons) was “not affected” and the “sensitivity of UL97-transfected HEK cells” value [2] was “showed sensitivity”. The “toxicity to non-transduced cells” value (non-transduced cells; at high concentrations) was “toxic”, the “teratoma formation, early ganciclovir treatment” value ([3]; 15 days ganciclovir starting 4 days post-transplantation, daily intra-peritoneal injection) was “no observed teratomas; also recorded: absence of teratoma formation and cell proliferation” and the “development of large tumors (graft surface), early ganciclovir treatment” value ([3]; PSC transplanted, early treatment) was “completely prevented”. The “tumor size (graft surface), late ganciclovir treatment” value ([3]; PSC transplanted, late treatment) was “did not have any effect”, the “human cells (HCM) remaining in graft, early ganciclovir treatment” value ([3]; day 4 to 19 post-transplantation, analysed one month after end of treatment) was “hardly any human cells left; also recorded: barely detectable” and the “teratoma formation, late ganciclovir treatment” value ([3]; ganciclovir days 30-45 post-transplantation, sacrifice 30 days after end of treatment) was “teratoma formation in both; also recorded: no difference”. The “time in which TK PSCs were killed” value ([4]; 40 μM) was at most 4 days, the “sensitivity of TK PSCs to ganciclovir exposure” value ([4]; 96h exposure) was “highly sensitive” and the “ganciclovir concentration at which loss of cells was almost complete” value ([4]; TK PSCs, 96h exposure) was 10 µM. The “ganciclovir concentration at which loss of cells was observed” value ([4]; TK PSCs, 96h exposure) was 2.5 µM, the “concentration needed to kill HSV-TK-transduced cells” value (HSV-TK-transduced cells) was “relatively low concentration” and the “time to complete killing of TK-NPCs” value (TK-NPCs; TK-NPCs after 1 week of neurosphere differentiation) was 8 days. The “killing of TK-NPCs” value (TK-NPCs; TK-NPCs after 2 weeks of neurosphere differentiation) was “not killed”, the “concentration needed to kill SR39-transduced cells” value (SR39-transduced cells) was “relatively low concentration” and the “sensitivity of HSV-TK-transfected HEK cells” value [5] was “sensitivity”. The “size of NPC transplants (graft surface)” value (TK-NPC transplants; NPC derived from 2-3 weeks old neurospheres) was “not affected”, the “PCNA / Ki67 staining pattern of transplants” value (TK-NPC transplants; NPC transplants) was “did not alter this pattern” and the “neural markers of transplanted cells (beta 3 tubulin, TH, nestin)” value (TK-NPC transplants; immunofluorescence 7 weeks after transplantation) was “None of these markers were affected”. The “graft development, PBS versus ganciclovir” value (TK-NPC transplants; treated on days 7-22 following transplantation, sacrifice 4 weeks after end of treatment) was “No difference was observed”.

From patent US11542524B2, “Elimination of proliferating cells from stem cell-derived grafts” (priority 2017, dated 2023)
